Among the test systems are UACC-257; MCF7; U-251; NCI/ADR-RES; Hs-578T; NCI-H23; HOP-62; RXF 393; EKVX; A498; SR; OVCAR-5; T47D; IGROV-1; LOX IMVI; CCRF-CEM; MDA-MB-231; MDA-N; BT-549.
Common to all, as to assay: NCI tumour cell line growth inhibition, 48 h

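1) Cells in 96-well plates. 2) Compound, 48 h, 5 concentrations. 3) Linear interpolation between surrounding doses. 4) Unreached endpoint = highest concentration. GI50 marks 50% less growth.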 The source made the active and inactive calls. Rule as the data show it: active = GI50 up to about 1.1 µM and inactive = higher.

As to `CS/C(C#N)=C(\C#N)SC`, the GI50 is 10.9 µM (inactive) in the assay on UACC-257; 2.22 µM (inactive) with MCF7; 4.45 µM (inactive) in the assay on U-251; 18.8 µM (inactive) with NCI/ADR-RES; 31.8 µM (inactive) in the assay on Hs-578T; 5.61 µM (inactive) with NCI-H23. The GI50 is 16.6 µM (inactive) in the assay with HOP-62; 1.82 µM (inactive) with RXF 393; 19 µM (inactive) with EKVX; 23 µM (inactive) in the assay with A498; 1.24 µM (inactive) in the assay on SR; 26.3 µM (inactive) in the assay on OVCAR-5. Besides, the GI50 in the assay with T47D was 4.19 µM (inactive); in the assay with IGROV-1, 6.25 µM (inactive); in the assay on LOX IMVI, 2.5 µM (inactive); in the assay with CCRF-CEM it was 5.6 µM (inactive); in the assay with MDA-MB-231, 24.7 µM (inactive).

In the case of `COC(=O)C(=O)C(C(=O)C(=O)Nc1cc(Cl)c(Cl)cc1Cl)c1nc2ccc([N+](=O)[O-])cc2nc1O` (stereo not given), the GI50 is > 100 µM (inactive) with UACC-257; > 100 µM (inactive) in the assay with U-251; > 100 µM (inactive) in the assay with NCI-H23; > 100 µM (inactive) in the assay with RXF 393; 48.5 µM (inactive) in the assay on EKVX; > 100 µM (inactive) in the assay with SR. Also, the GI50 with OVCAR-5, in the assay with IGROV-1, with LOX IMVI and in the assay on CCRF-CEM was > 100 µM (inactive) throughout.

For the compound `CCOC(=O)N1CCC2(CC1)C[C@](Sc1ccccc1)(C(C)=O)[C@H](C)O2`, the GI50 with UACC-257, in the assay on MCF7, in the assay on U-251, with NCI/ADR-RES, in the assay on Hs-578T and in the assay with NCI-H23 was > 100 µM (inactive) each time. Further, the GI50 in the assay on HOP-62, in the assay with RXF 393, in the assay on EKVX, in the assay with A498, with SR and in the assay on OVCAR-5 was > 100 µM (inactive) throughout. Also, the GI50 in the assay on T47D is > 100 µM (inactive); with MDA-N, 53.5 µM (inactive); with IGROV-1, > 100 µM (inactive); in the assay with LOX IMVI, > 100 µM (inactive); with CCRF-CEM it was 12.1 µM (inactive); in the assay on MDA-MB-231, > 100 µM (inactive).

For the compound `COc1ccc(/C=C2\OC(=O)C(Cl)=C2c2ccc(OC)c(Cl)c2)cc1`, the GI50 is 34.7 µM (inactive) in the assay with UACC-257; 19.9 µM (inactive) in the assay with MCF7; 29.4 µM (inactive) in the assay with U-251; 21.4 µM (inactive) in the assay with NCI/ADR-RES; 20.9 µM (inactive) in the assay on Hs-578T; 20 µM (inactive) in the assay with NCI-H23. Besides, the GI50 was 15.2 µM (inactive) with HOP-62; 12 µM (inactive) in the assay with RXF 393; 18.3 µM (inactive) in the assay with EKVX; 17.7 µM (inactive) in the assay on A498; 29 µM (inactive) in the assay on SR; 24.6 µM (inactive) with OVCAR-5. The GI50 is 32.1 µM (inactive) with T47D; 17.7 µM (inactive) with MDA-N; 32 µM (inactive) with IGROV-1; 32.1 µM (inactive) in the assay with LOX IMVI; 29.2 µM (inactive) in the assay with CCRF-CEM.

Consider `COc1cccc2c1[C@H](OC)[C@]13O[C@@]1(C2=O)[C@H](O)[C@H](C)[C@@](O)(C(=O)[C@@H]1O[C@H]1C)[C@@H]3O`, for which the GI50 with UACC-257 is 0.225 µM (active); with MCF7 it was 0.294 µM (active); in the assay with U-251, 0.303 µM (active); with NCI/ADR-RES it was 0.337 µM (active); with Hs-578T, 0.235 µM (active); in the assay with NCI-H23, 0.196 µM (active). Moreover, the GI50 in the assay on HOP-62 is 0.232 µM (active); in the assay on RXF 393 it was 0.245 µM (active); in the assay on EKVX, 0.187 µM (active); in the assay with A498 it was 0.253 µM (active); in the assay with T47D, 0.313 µM (active); in the assay on MDA-N it was 0.265 µM (active). The GI50 in the assay on IGROV-1 was 0.229 µM (active); in the assay with LOX IMVI it was 0.237 µM (active); with CCRF-CEM, 0.155 µM (active); with MDA-MB-231, 0.202 µM (active).

For the compound `CC1=CC(=O)C(C(O)(C(F)(F)F)C(F)(F)F)C(C)(C)C1` (stereo not given), the GI50 in the assay on UACC-257, in the assay with MCF7, in the assay with U-251, with NCI/ADR-RES, in the assay on Hs-578T and with NCI-H23 was > 10 µM (inactive) in each case. The GI50 in the assay on HOP-62, with RXF 393, in the assay on EKVX, in the assay with A498, in the assay with SR and with T47D was > 10 µM (inactive) each time. Besides, the GI50 with MDA-N, in the assay with IGROV-1, in the assay with LOX IMVI, in the assay on CCRF-CEM and in the assay with MDA-MB-231 was > 10 µM (inactive) throughout.

Take `Cc1ccc(S(=O)(=O)OI(O)CC(F)(F)F)cc1`: the GI50 in the assay on UACC-257, in the assay with MCF7, in the assay with U-251, with NCI/ADR-RES, in the assay on BT-549 and with NCI-H23 was > 100 µM (inactive) in each case. Also, the GI50 with HOP-62, in the assay with RXF 393, in the assay on EKVX, with A498, with SR and in the assay with OVCAR-5 was > 100 µM (inactive) each time. Also, the GI50 with T47D, in the assay with IGROV-1, in the assay with LOX IMVI, in the assay on CCRF-CEM and with MDA-MB-231 was > 100 µM (inactive) throughout.

As for `COc1ccc(C[N+]23C(CC[C@H]2c2ccccc2)CC[C@H]3c2ccccc2)cc1` (stereo not given in full), the GI50 in the assay with UACC-257 was 5.22 µM (inactive); in the assay on MCF7 it was 14.7 µM (inactive); with U-251, 18.6 µM (inactive); in the assay with Hs-578T, 27.7 µM (inactive); in the assay with HOP-62, 21 µM (inactive); with RXF 393, 13.8 µM (inactive). The GI50 with EKVX is 15.4 µM (inactive); with A498, 39.7 µM (inactive); in the assay on SR, 15.7 µM (inactive); in the assay on OVCAR-5, 32.3 µM (inactive); in the assay with T47D, 4.56 µM (inactive); in the assay on MDA-N, 13.2 µM (inactive). Also, the GI50 is 10.9 µM (inactive) in the assay on IGROV-1, 16.6 µM (inactive) in the assay on LOX IMVI, 27.5 µM (inactive) in the assay with CCRF-CEM and 28.2 µM (inactive) in the assay on MDA-MB-231.

As for `O=C(CCc1cc(-c2ccc(F)cc2)n[nH]1)N(Cc1ccccc1)Cc1ccccc1`, the GI50 in the assay on UACC-257, in the assay on U-251, in the assay on NCI-H23, with HOP-62, with RXF 393 and in the assay on EKVX was > 100 µM (inactive) each time. Moreover, the GI50 is > 100 µM (inactive) in the assay with A498; 13.8 µM (inactive) with SR; > 100 µM (inactive) with OVCAR-5; > 100 µM (inactive) in the assay with IGROV-1; > 100 µM (inactive) in the assay on LOX IMVI; > 100 µM (inactive) in the assay on CCRF-CEM.

Regarding `CCN(CC)C(=O)CCn1cc(F)c(=O)[nH]c1=O`, the GI50 in the assay with U-251, with NCI-H23, in the assay with HOP-62, in the assay on RXF 393, in the assay with EKVX and in the assay with SR was > 100 µM (inactive) in each case. Besides, the GI50 in the assay on OVCAR-5, with IGROV-1, with LOX IMVI and in the assay with CCRF-CEM was > 100 µM (inactive) throughout.

For the compound `Cc1cn(Cc2ccccc2CCl)c(=O)[nH]c1=O`, the GI50 in the assay with UACC-257 was 13.4 µM (inactive); in the assay with MCF7, 4.84 µM (inactive); in the assay with U-251, 7.94 µM (inactive); in the assay on NCI/ADR-RES it was 18.2 µM (inactive); with Hs-578T, 14.2 µM (inactive); with NCI-H23, 10.2 µM (inactive). Besides, the GI50 was 15.6 µM (inactive) with HOP-62; 8 µM (inactive) in the assay on RXF 393; 16.4 µM (inactive) in the assay with EKVX; 23.3 µM (inactive) with OVCAR-5; 11.5 µM (inactive) in the assay on T47D; 3.46 µM (inactive) in the assay on IGROV-1. Further, the GI50 in the assay with CCRF-CEM was 4.58 µM (inactive).

As to `O=C(O)[C@H](Cc1ccccc1)NCCN1CCC[C@H]1C(=O)O`, the GI50 in the assay with MCF7, in the assay on U-251, with NCI/ADR-RES, in the assay on NCI-H23, in the assay with HOP-62 and in the assay on RXF 393 was > 100 µM (inactive) each time. For the same compound, the GI50 was 42.6 µM (inactive) in the assay on A498; > 100 µM (inactive) with OVCAR-5; > 100 µM (inactive) in the assay with T47D; > 100 µM (inactive) in the assay on MDA-N; > 100 µM (inactive) in the assay on MDA-MB-231.

In the case of `CCN1CCN(c2nc3ccccc3nc2C(=O)c2ccc(OC)cc2)CC1`, the GI50 in the assay with UACC-257 is 16.5 µM (inactive); in the assay with MCF7, 7.1 µM (inactive); with U-251 it was 39.4 µM (inactive); with NCI/ADR-RES, 45.1 µM (inactive); in the assay on Hs-578T, 38.6 µM (inactive); in the assay with NCI-H23, 27 µM (inactive). The GI50 in the assay on HOP-62 was 16 µM (inactive); in the assay on RXF 393, 12.4 µM (inactive); in the assay with EKVX it was 47.1 µM (inactive); with A498, 37.1 µM (inactive); in the assay on SR it was 11.7 µM (inactive); in the assay on OVCAR-5, 56.8 µM (inactive). In addition, the GI50 in the assay with T47D is > 100 µM (inactive); in the assay on MDA-N, 32.1 µM (inactive); in the assay with IGROV-1, 75.9 µM (inactive); in the assay with LOX IMVI, 24.8 µM (inactive).

For the origin of these results see ChEMBL document CHEMBL1201862, “PubChem BioAssay data set” (2004).
